# Assay results from article PMC11025159 (Journal of Translational Medicine, 2024).
# Values joined by “and” are separate entries in the source; they are usually repeats but may differ in a detail not shown here. Equal entries are not always repeated.
# What was measured:
# [1] = Body weight, biochemical and haematological parameters in DHT-induced AGA mice (0.5% testosterone then topical treatment); assay type: in vivo, C57BL/6J mice; details: for Weight of C57BL/6J mice: individual mice; for LYMPH: unit assumed
# Description: The experiments were performed on C57BL/6 J and Athymic nude mice (NU/J Foxn1^nu) of 6–7 weeks of age obtained from Animal House Facility, CSIR-Indian Institute of Integrative Medicine (IIIM), Jammu, India. […] The animals were provided with ad libitum feed (standard pellet diet) and autoclaved RO water throughout the study. The body weight of mice was measured after seven days before treatment.
# C57BL/6 J mice (male) were obtained from CSIR-IIIM Animal House at 7 weeks of age. We used a DHT-induced AGA mice model for this study. […] At the end of the experiment, skin samples were collected and preserved in 10% neutral buffered formalin for tissue sectioning and staining using haematoxylin and eosin (H&E). The histopathological examinations were performed under the 10× and 40× objectives of light microscope (Magnus, Mx21i).
# Every two weeks during the experimental period, mice were anesthetized, and the blood samples were collected into tubes containing heparin sodium to detect the total and differential white blood cells, haemoglobin, red blood cell, platelet count, mean corpuscular haemoglobin, mean corpuscular volume, red blood cell volume, mean platelet volume, and analyzed using an automated haematology analyzer (Model: XT1800i; Make: Sysmex).
# Every two weeks during the experimental period, mice and rats were anesthetized, and blood samples were collected into non-heparinized tubes and then centrifuged at 1000 rpm at 4 °C for 10 min to obtain the serum. The biochemical parameters, including total protein, aspartate aminotransferase, alanine aminotransferase, total protein, albumin, total bilirubin, direct bilirubin, glucose, total cholesterol, triglyceride, low-density lipoprotein, high-density lipoprotein, creatinine, and uric acid, were measured using an automatic biochemical analyzer (Model: EM360; Make: Erba Mannheim).
# Mia PaCa-2 = assay: MTT cell viability assay Mia PaCa-2; assay type: cell-based, human; details: Homo sapiens, MIA PaCa-2, 48 h
# Description: Cell viability was evaluated using an MTT colorimetric assay. Cells were seeded (10^5 cells/mL) in 96-well plates and allowed to grow overnight at 37 ℃ with 5% CO2 in a cell-culture incubator. On the following day, the cells were treated with small molecules at different concentrations (0.2–10 micro-molar) or vehicle (DMSO). Cells were then further incubated for 48 h.
# PI-3-K δ = target: T1, PI-3-K δ (Homo sapiens, UniProt O00329); assay: Cell-free kinase assay PI-3-K δ; assay type: biochemical; details: Km ATP
# T1 construct: purchased Promega Corporation V1690
# Description: The cell-free kinase assays of small molecules were determined by following the manufacturer-recommended protocols. Different concentrations in triplicate were used to determine the IC50 value of the hit molecules (active molecules). For data analysis, GraphPad Prism V9.5 Software and a sigmoidal dose–response (variable slope) equation were used. Each value represents an average of three replicates per concentration.
# T1 sequence (O00329 whole entry): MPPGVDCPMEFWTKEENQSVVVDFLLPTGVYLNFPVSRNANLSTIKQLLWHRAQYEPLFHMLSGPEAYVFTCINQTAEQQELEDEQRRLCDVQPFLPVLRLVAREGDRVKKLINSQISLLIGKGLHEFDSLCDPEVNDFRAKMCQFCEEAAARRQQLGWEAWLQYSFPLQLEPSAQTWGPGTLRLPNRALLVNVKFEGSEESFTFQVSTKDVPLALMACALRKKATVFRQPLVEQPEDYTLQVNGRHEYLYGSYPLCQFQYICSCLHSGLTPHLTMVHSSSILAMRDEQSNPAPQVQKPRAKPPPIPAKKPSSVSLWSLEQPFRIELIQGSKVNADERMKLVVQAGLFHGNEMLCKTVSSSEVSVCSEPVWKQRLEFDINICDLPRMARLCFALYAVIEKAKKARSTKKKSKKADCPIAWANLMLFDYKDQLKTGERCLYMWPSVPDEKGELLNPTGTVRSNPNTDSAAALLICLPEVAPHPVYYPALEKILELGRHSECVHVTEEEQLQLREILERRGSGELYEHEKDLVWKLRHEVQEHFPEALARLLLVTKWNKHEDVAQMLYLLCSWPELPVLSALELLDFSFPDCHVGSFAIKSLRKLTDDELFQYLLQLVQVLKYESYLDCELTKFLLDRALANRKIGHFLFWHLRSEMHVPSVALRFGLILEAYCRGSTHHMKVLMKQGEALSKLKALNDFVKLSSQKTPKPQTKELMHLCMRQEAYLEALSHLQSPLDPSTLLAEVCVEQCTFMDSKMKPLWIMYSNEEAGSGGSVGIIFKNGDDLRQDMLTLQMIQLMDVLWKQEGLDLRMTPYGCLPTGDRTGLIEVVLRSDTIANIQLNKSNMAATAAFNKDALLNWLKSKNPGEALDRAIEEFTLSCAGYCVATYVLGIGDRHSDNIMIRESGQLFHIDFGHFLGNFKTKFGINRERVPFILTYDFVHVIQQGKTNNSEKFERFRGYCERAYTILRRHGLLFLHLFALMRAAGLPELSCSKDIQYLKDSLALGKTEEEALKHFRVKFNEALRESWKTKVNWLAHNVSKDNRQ
# T1 sequence (P27986 whole entry partner): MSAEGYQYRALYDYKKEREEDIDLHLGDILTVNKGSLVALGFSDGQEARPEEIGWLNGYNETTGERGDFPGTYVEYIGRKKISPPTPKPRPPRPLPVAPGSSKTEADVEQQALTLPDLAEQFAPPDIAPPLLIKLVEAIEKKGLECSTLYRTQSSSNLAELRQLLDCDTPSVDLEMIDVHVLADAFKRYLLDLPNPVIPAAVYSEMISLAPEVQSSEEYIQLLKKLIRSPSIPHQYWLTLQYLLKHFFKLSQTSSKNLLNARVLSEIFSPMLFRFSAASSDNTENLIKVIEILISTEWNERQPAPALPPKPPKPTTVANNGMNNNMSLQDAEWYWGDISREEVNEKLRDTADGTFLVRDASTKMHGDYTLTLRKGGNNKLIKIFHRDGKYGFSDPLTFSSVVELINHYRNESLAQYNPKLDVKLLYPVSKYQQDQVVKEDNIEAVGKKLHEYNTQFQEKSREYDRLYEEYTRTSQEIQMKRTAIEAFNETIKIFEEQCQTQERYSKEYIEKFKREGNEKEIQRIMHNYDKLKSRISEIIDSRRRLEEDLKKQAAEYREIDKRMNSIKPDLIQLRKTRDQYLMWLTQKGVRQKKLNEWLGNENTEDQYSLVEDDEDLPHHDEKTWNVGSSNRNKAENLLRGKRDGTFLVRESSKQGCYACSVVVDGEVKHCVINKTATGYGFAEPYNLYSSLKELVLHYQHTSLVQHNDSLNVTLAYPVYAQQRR
structure (smiles),measurement,setting,value
Fc1ccc(-c2cnc3[nH]cc(-c4ccnc(NC5CC5)n4)c3c2)cc1 [MJ04],Weight of C57BL/6J mice,"[1]; 0.016 mg/Kg, DAY 1, in g (unit assumed)",27.2 and 23.8 and 24.6 and 24.7 and 25.6 and 25.7 and 25.8
same,Weight of C57BL/6J mice,"[1]; 0.016 mg/Kg, DAY 7",28.1 and 25.1 and 26.1 (2×) and 26.9 and 27.1 and 27.3
same,Weight of C57BL/6J mice,"[1]; 0.016 mg/Kg, DAY 14, in g (unit assumed)",29.3 and 26.4 and 27.3 and 27.4 and 28.1 and 28.4 and 28.7
same,Weight of C57BL/6J mice,"[1]; 0.016 mg/Kg, DAY 21, in g (unit assumed)",27.6 and 28.7 and 28.9 and 29.7 and 30.1 and 30.4
same,Weight of C57BL/6J mice,"[1]; 0.016 mg/Kg, DAY 28",30.3 and 30.4 (2×) and 31.6 and 31.7
same,Weight of C57BL/6J mice,"[1]; 0.04 mg/Kg, DAY 1",24.2 and 24.6 and 25.6 (2×) and 25.7 and 25.8 and 26.3 and 27.4
same,Weight of C57BL/6J mice,"[1]; 0.04 mg/Kg, DAY 7, in g (unit assumed)",26.1 and 26.3 and 26.4 and 26.7 and 26.9 and 27.1 and 27.2 and 28.7
same,Weight of C57BL/6J mice,"[1]; 0.04 mg/Kg, DAY 14",28.1 and 28.3 (2×) and 28.5 and 28.6 and 28.7 and 29.6
same,Weight of C57BL/6J mice,"[1]; 0.04 mg/Kg, DAY 21",29.4 and 29.7 and 29.8 and 30.1 and 30.4 (2×)
same,Weight of C57BL/6J mice,"[1]; 0.04 mg/Kg, DAY 28",30.3 and 31.2 (2×) and 31.3 and 31.5
same,Weight of C57BL/6J mice,"[1]; 0.08 mg/Kg, DAY 1",24.8 and 25.4 (2×) and 26.4 (2×) and 24.2 and 25.6 and 25.9
same,Weight of C57BL/6J mice,"[1]; 0.08 mg/Kg, DAY 7",26.7 (3×) and 25.5 and 27.3 and 27.5 and 28.37 and 25.7
same,Weight of C57BL/6J mice,"[1]; 0.08 mg/Kg, DAY 14",27.6 and 28.1 (2×) and 28.4 and 27.1 and 29.3 and 27.4
same,Weight of C57BL/6J mice,"[1]; 0.08 mg/Kg, DAY 21",29.4 (2×) and 29.7 and 30.1 and 30.7 and 28.6
same,Weight of C57BL/6J mice,"[1]; 0.08 mg/Kg, DAY 28",30.3 and 31.2 and 31.3 (2×) and 30.2
same,ALP,"[1]; Day 21, 0.016 mg/Kg",99 U/L
same,ALT/SGPT,"[1]; Day 21, 0.016 mg/Kg",86 U/L
same,AST/SGOT,"[1]; Day 21, 0.016 mg/Kg",143 U/L
same,Cholesterol,"[1]; Day 21, 0.016 mg/Kg",154 mg/dL
same,Creatine,"[1]; Day 21, 0.016 mg/Kg",0.72 mg/dL
same,HCT,"[1]; Day 21, 0.016 mg/Kg",48%
same,HDL,"[1]; Day 21, 0.016 mg/Kg",112 mg/dL
same,HGB,"[1]; Day 21, 0.016 mg/Kg",14 g/dL
same,LDL,"[1]; Day 21, 0.016 mg/Kg",103 mg/dL
same,MCHC,"[1]; Day 21, 0.016 mg/Kg",29 g/dL
same,MCV,"[1]; Day 21, 0.016 mg/Kg",50 fL
same,NEUT,"[1]; Day 21, 0.016 mg/Kg",25.7%
same,PLT,"[1]; Day 21, 0.016 mg/Kg",1105 103/μl
same,RBC,"[1]; Day 21, 0.016 mg/Kg",9.7 1012/l
same,Total protein,"[1]; Day 21, 0.016 mg/Kg",5.2 g/dL
same,Triglyceride,"[1]; Day 21, 0.016 mg/Kg",114 mg/dL
same,Urea,"[1]; Day 21, 0.016 mg/Kg",55 mg/dL
same,WBC,"[1]; Day 21, 0.016 mg/Kg",6.5 103/μl
same,LYMPH,"[1]; Day 21, 0.016 mg/Kg",73.3%
same,ALP,"[1]; Day 21, 0.04 mg/Kg",121 U/L
same,ALT/SGPT,"[1]; Day 21, 0.04 mg/Kg",74 U/L
same,AST/SGOT,"[1]; Day 21, 0.04 mg/Kg",148 U/L
same,Cholesterol,"[1]; Day 21, 0.04 mg/Kg",138 mg/dL
same,Creatine,"[1]; Day 21, 0.04 mg/Kg",0.69 mg/dL
same,HCT,"[1]; Day 21, 0.04 mg/Kg",46%
same,HDL,"[1]; Day 21, 0.04 mg/Kg",111 mg/dL
same,HGB,"[1]; Day 21, 0.04 mg/Kg",13 g/dL
same,LDL,"[1]; Day 21, 0.04 mg/Kg",101 mg/dL
same,MCHC,"[1]; Day 21, 0.04 mg/Kg",29 g/dL
same,MCV,"[1]; Day 21, 0.04 mg/Kg",50 fL
same,NEUT,"[1]; Day 21, 0.04 mg/Kg",39.4%
same,PLT,"[1]; Day 21, 0.04 mg/Kg",899 103/μl
same,RBC,"[1]; Day 21, 0.04 mg/Kg",9.0 1012/l
same,Total protein,"[1]; Day 21, 0.04 mg/Kg",4.9 g/dL
same,Triglyceride,"[1]; Day 21, 0.04 mg/Kg",127 mg/dL
same,Urea,"[1]; Day 21, 0.04 mg/Kg",49 mg/dL
same,WBC,"[1]; Day 21, 0.04 mg/Kg",3.0 103/μl
same,LYMPH,"[1]; Day 21, 0.04 mg/Kg",60.3%
same,ALP,"[1]; Day 21, 0.08 mg/Kg",111 U/L
same,ALT/SGPT,"[1]; Day 21, 0.08 mg/Kg",58 U/L
same,AST/SGOT,"[1]; Day 21, 0.08 mg/Kg",114 U/L
same,Cholesterol,"[1]; Day 21, 0.08 mg/Kg",184 mg/dL
same,Creatine,"[1]; Day 21, 0.08 mg/Kg",0.49 mg/dL
same,HCT,"[1]; Day 21, 0.08 mg/Kg",36%
same,HDL,"[1]; Day 21, 0.08 mg/Kg",105 mg/dL
same,HGB,"[1]; Day 21, 0.08 mg/Kg",10 g/dL
same,LDL,"[1]; Day 21, 0.08 mg/Kg",102 mg/dL
same,MCHC,"[1]; Day 21, 0.08 mg/Kg",28 g/dL
same,MCV,"[1]; Day 21, 0.08 mg/Kg",50 fL
same,NEUT,"[1]; Day 21, 0.08 mg/Kg",32.4%
same,PLT,"[1]; Day 21, 0.08 mg/Kg",424 103/μl
same,RBC,"[1]; Day 21, 0.08 mg/Kg",6.9 1012/l
same,Total protein,"[1]; Day 21, 0.08 mg/Kg",5.2 g/dL
same,Triglyceride,"[1]; Day 21, 0.08 mg/Kg",108 mg/dL
same,Urea,"[1]; Day 21, 0.08 mg/Kg",71 mg/dL
same,WBC,"[1]; Day 21, 0.08 mg/Kg",3.3 103/μl
same,LYMPH,"[1]; Day 21, 0.08 mg/Kg",63%
same,ALP,"[1]; Day 28, 0.016 mg/Kg",193 U/L
same,ALT/SGPT,"[1]; Day 28, 0.016 mg/Kg",85 U/L
same,AST/SGOT,"[1]; Day 28, 0.016 mg/Kg",75 U/L
same,Cholesterol,"[1]; Day 28, 0.016 mg/Kg",194 mg/dL
same,Creatine,"[1]; Day 28, 0.016 mg/Kg",0.20 mg/dL
same,HCT,"[1]; Day 28, 0.016 mg/Kg",46.0%
same,HDL,"[1]; Day 28, 0.016 mg/Kg",94 mg/dL
same,HGB,"[1]; Day 28, 0.016 mg/Kg",14 g/dL
same,LDL,"[1]; Day 28, 0.016 mg/Kg",109 mg/dL
same,MCHC,"[1]; Day 28, 0.016 mg/Kg",30.0 g/dL
same,MCV,"[1]; Day 28, 0.016 mg/Kg",63 fL
same,PLT,"[1]; Day 28, 0.016 mg/Kg",1727 103/μl
same,RBC,"[1]; Day 28, 0.016 mg/Kg",7.4 106/μl
same,Total protein,"[1]; Day 28, 0.016 mg/Kg",6.3 g/dL
same,Triglyceride,"[1]; Day 28, 0.016 mg/Kg",132 mg/dL
same,Urea,"[1]; Day 28, 0.016 mg/Kg",54 mg/dL
same,WBC,"[1]; Day 28, 0.016 mg/Kg",7.8 103/μl
same,ALP,"[1]; Day 28, 0.04 mg/Kg",243 U/L
same,ALT/SGPT,"[1]; Day 28, 0.04 mg/Kg",69 U/L
same,AST/SGOT,"[1]; Day 28, 0.04 mg/Kg",107 U/L
same,Cholesterol,"[1]; Day 28, 0.04 mg/Kg",165 mg/dL
same,Creatine,"[1]; Day 28, 0.04 mg/Kg",0.14 mg/dL
same,HCT,"[1]; Day 28, 0.04 mg/Kg",46.0%
same,HDL,"[1]; Day 28, 0.04 mg/Kg",108 mg/dL
same,HGB,"[1]; Day 28, 0.04 mg/Kg",14 g/dL
same,LDL,"[1]; Day 28, 0.04 mg/Kg",91 mg/dL
same,MCHC,"[1]; Day 28, 0.04 mg/Kg",30.0 g/dL
same,MCV,"[1]; Day 28, 0.04 mg/Kg",62.0 fL
same,PLT,"[1]; Day 28, 0.04 mg/Kg",1687 103/μl
same,RBC,"[1]; Day 28, 0.04 mg/Kg",7.5 106/μl
same,Total protein,"[1]; Day 28, 0.04 mg/Kg",5.8 g/dL
same,Triglyceride,"[1]; Day 28, 0.04 mg/Kg",122 mg/dL
same,Urea,"[1]; Day 28, 0.04 mg/Kg",52 mg/dL
same,WBC,"[1]; Day 28, 0.04 mg/Kg",7.5 103/μl
same,ALP,"[1]; Day 28, 0.08 mg/Kg",189 U/L
same,ALT/SGPT,"[1]; Day 28, 0.08 mg/Kg",63 U/L
same,AST/SGOT,"[1]; Day 28, 0.08 mg/Kg",113 U/L
same,Cholesterol,"[1]; Day 28, 0.08 mg/Kg",194 mg/dL
same,Creatine,"[1]; Day 28, 0.08 mg/Kg",0.13 mg/dL
same,HCT,"[1]; Day 28, 0.08 mg/Kg",52.0%
same,HDL,"[1]; Day 28, 0.08 mg/Kg",106 mg/dL
same,HGB,"[1]; Day 28, 0.08 mg/Kg",15 g/dL
same,LDL,"[1]; Day 28, 0.08 mg/Kg",78 mg/dL
same,MCHC,"[1]; Day 28, 0.08 mg/Kg",29.0 g/dL
same,MCV,"[1]; Day 28, 0.08 mg/Kg",61.0 fL
same,PLT,"[1]; Day 28, 0.08 mg/Kg",1362 103/μl
same,RBC,"[1]; Day 28, 0.08 mg/Kg",8.6 106/μl
same,Total protein,"[1]; Day 28, 0.08 mg/Kg",6.2 g/dL
same,Triglyceride,"[1]; Day 28, 0.08 mg/Kg",174 mg/dL
same,Urea,"[1]; Day 28, 0.08 mg/Kg",79 mg/dL
same,WBC,"[1]; Day 28, 0.08 mg/Kg",7.1 103/μl
same,IC50,Mia PaCa-2,2270 nM
same,IC50,PI-3-K δ,> 10000 nM
